Where two headings read alike, the source gives them in different places.
Key:
Format in all cases: cell-based
AKT2 = biological target: T1, AKT2 (Homo sapiens, UniProt P31751); assay: Live cell AKT2 target engagement by NanoBRET competitive probe displacement; details: HEK293 cells transfected with kinase-NanoLuciferase fusion, 2 h at 37° C.
T1 construct: expressed in transfected cells; host or cells: HEK293
Summary of the method: (§1)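 IC50 reflects displacement of a fluorescent ATP-competitive tracer, dosed near its EC50, from kinase–NanoLuciferase fusions in live HEK293 cells. Cells were incubated with compound and tracer for 2 h at 37 °C, then E600/E460 BRET was read.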

AKT1 E17K = biological target: T2, AKT1 E17K (Homo sapiens, UniProt P31749, E17K); assay: Live cell AKT1 E17K target engagement by NanoBRET competitive probe displacement; details: HEK293 cells transfected with kinase-NanoLuciferase fusion, 2 h at 37° C.
T2 construct: expressed in transfected cells; host or cells: HEK293
Summary of the method: as §1

AKT1 WT = biological target: T3, AKT1 WT (Homo sapiens, UniProt P31749); assay: Live cell AKT1 WT target engagement by NanoBRET competitive probe displacement; details: HEK293 cells transfected with kinase-NanoLuciferase fusion, 2 h at 37° C.
T3 construct: expressed in transfected cells; host or cells: HEK293
Summary of the method: as §1

[1] = tested on: LAPC4 prostate cancer cells; assay: Antiproliferative effects in LAPC4 cells (CellTiter Glo); details: LAPC4 cells (AKT1 E17K allele), read-out: LAPC4 proliferation IC50
Summary of the method: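 Seed 1,000 cells/well in IMDM/12% FBS/1% P/S; add compound dilutions (DMSO); incubate 72 h; read intracellular ATP with CellTiter Glo; fit luminescence to log(inhibitor)-response Hill curve for IC50.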

T2 sequence (P31749 whole entry E17K, the tested form may be a part): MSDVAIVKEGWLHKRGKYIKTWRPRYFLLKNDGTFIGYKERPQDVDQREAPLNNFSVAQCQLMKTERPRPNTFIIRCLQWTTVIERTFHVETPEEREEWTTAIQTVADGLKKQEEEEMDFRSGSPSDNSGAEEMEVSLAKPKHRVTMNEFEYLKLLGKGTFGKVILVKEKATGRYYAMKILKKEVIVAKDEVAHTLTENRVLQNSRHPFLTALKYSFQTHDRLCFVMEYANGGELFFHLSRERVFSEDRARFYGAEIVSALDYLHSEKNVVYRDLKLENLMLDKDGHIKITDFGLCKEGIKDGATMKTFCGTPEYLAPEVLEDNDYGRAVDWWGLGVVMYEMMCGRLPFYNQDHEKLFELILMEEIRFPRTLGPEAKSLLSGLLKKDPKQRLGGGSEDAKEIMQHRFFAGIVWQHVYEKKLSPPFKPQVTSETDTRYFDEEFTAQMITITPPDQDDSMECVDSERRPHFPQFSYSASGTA
T3 sequence (P31749 whole entry, the tested form may be a part): as the sequence (P31749 whole entry E17K, the tested form may be a part) above, with K17E counted along it
T1 sequence (P31751 whole entry, the tested form may be a part): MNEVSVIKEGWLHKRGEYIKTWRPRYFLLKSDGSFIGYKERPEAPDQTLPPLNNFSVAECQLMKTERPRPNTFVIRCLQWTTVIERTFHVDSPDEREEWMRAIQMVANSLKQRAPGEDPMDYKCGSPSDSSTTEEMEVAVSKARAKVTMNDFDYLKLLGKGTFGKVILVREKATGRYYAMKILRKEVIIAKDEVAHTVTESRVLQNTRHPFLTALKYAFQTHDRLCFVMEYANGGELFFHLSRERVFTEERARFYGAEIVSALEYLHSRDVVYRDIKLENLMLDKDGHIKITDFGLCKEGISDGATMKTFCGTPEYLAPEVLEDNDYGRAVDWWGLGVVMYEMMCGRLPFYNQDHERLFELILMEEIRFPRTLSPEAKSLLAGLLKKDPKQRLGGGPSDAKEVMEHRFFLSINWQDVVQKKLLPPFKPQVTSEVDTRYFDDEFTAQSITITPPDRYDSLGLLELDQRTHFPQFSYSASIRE

Row | IC50 (AKT2) | IC50 (AKT1 E17K) | IC50 (AKT1 WT) | IC50 ([1]; Homo sapiens, LAPC4, 72 h) | IC50 ([1]; 72 h) | SMILES
1 | 37.9 nM | 14.1 nM | 12 nM | 238 nM |  | C=CS(=O)(=O)Nc1ccccc1C(=O)N[C@H]1CCc2cc(-n3c(-c4cccnc4N)nc4ccc(-n5cccn5)nc43)ccc21 [Example 24, (S)-N-(5-(2-(2-aminopyridin-3-yl)-5-(1H-pyrazol-1-yl)-3H-imidazo[4,5-b]pyridin-3-yl)-2,3-dihydro-1H-inden-1-yl)-2-(vinylsulfonamido)benzamide]
2 | 2250 nM | 135 nM | 50.1 nM | 426 nM |  | C=C(F)C(=O)Nc1ccccc1C(=O)N[C@H]1CCc2cc(-n3c(-c4cccnc4N)nc4ccc(-n5nccn5)nc43)ccc21 [Example 23, (S)-N-(5-(2-(2-aminopyridin-3-yl)-5-(2H-1,2,3-triazol-2-yl)-3H-imidazo[4,5-b]pyridin-3-yl)-2,3-dihydro-1H-inden-1-yl)-2-(2-fluoroacrylamido)benzamide]
3 | 165 nM | 42.4 nM | 10.2 nM | 94.3 nM |  | C=C(OC)C(=O)Nc1ccccc1C(=O)N[C@H]1CCc2cc(-n3c(-c4cccnc4N)nc4ccc(-n5cccn5)nc43)ccc21 [Example 108, (S)-N-(5-(2-(2-aminopyridin-3-yl)-5-(1H-pyrazol-1-yl)-3H-imidazo[4,5-b]pyridin-3-yl)-2,3-dihydro-1H-inden-1-yl)-2-(2-methoxyacrylamido)benzamide]
4 | 21 nM | 7.21 nM | 162 nM |  | 76.3 nM | C=CC(=O)N1CCC(N[C@@H]2c3ccc(-n4c(-c5cccnc5N)nc5ccc(-n6ccc(F)n6)nc54)cc3CC2F)C[C@@H]1C (single isomer, unassigned) [Example 270, 1-((2S,4*)-4-(((1R,2*)-5-(2-(2-aminopyridin-3-yl)-5-(3-fluoro-1H-pyrazol-1-yl)-3H-imidazo[4,5-b]pyridin-3-yl)-2-fluoro-2,3-dihydro-1H-inden-1-yl)amino)-2-methylpiperidin-1-yl)prop-2-en-1-one]
5 | 239 nM | 31.8 nM | 308 nM | 394 nM |  | C=CC(=O)N1CCC(N[C@H]2CCc3cc(-n4c(-c5cccnc5N)nc5ccc(-c6cnn(C(F)(F)F)c6)nc54)ccc32)CC1 [Example 225, 1-(4-{[(1S)-5-[2-(2-aminopyridin-3-yl)-5-[1-(trifluoromethyl)pyrazol-4-yl]imidazo[4,5-b]pyridin-3-yl]-2,3-dihydro-1H-inden-1-yl]amino}piperidin-1-yl)prop-2-en-1-one]
6 | 97.7 nM | 21.9 nM | 756 nM | 334 nM |  | C=CC(=O)N1CCC(N[C@H]2CCc3cc(-n4c(-c5cccnc5N)nc5ccc(C6CC6)nc54)ccc32)C(C)C1 (single isomer, unassigned) [Example 229, 1-((3*,4*)-4-(((S)-5-(2-(2-aminopyridin-3-yl)-5-cyclopropyl-3H-imidazo[4,5-b]pyridin-3-yl)-2,3-dihydro-1H-inden-1-yl)amino)-3-methylpiperidin-1-yl)prop-2-en-1-one]
7 | 115 nM | 53.7 nM | 593 nM | 565 nM |  | C=CC(=O)N1CCC(c2cn([C@H]3CCc4cc(-n5c(-c6cccnc6N)nc6ccc(-n7cccn7)nc65)ccc43)nn2)CC1 [Example 169, 1-(4-{1-[(1S)-5-[2-(2-aminopyridin-3-yl)-5-(pyrazol-1-yl)imidazo[4,5-b]pyridin-3-yl]-2,3-dihydro-1H-inden-1-yl]-1,2,3-triazol-4-yl}piperidin-1-yl)prop-2-en-1-one]
8 | 216 nM | 54.5 nM | 17.2 nM | 110 nM |  | C=CC(=O)N1CCC(N[C@H]2CCc3cc(-n4c(-c5cccnc5N)nc5ccc(-n6cccn6)nc54)ccc32)C(C#N)C1 (stereo partly drawn) [Example 157, (3*,4*)-1-acryloyl-4-(((S)-5-(2-(2-aminopyridin-3-yl)-5-(1H-pyrazol-1-yl)-3H-imidazo[4,5-b]pyridin-3-yl)-2,3-dihydro-1H-inden-1-yl)amino)piperidine-3-carbonitrile]
9 | 640 nM | 247 nM | 78.1 nM |  | 568 nM | C=CC(=O)N1CCCC(N[C@H]2CCc3cc(-n4c(-c5cccnc5N)nc5ccc(-n6cccn6)nc54)ccc32)CC1 (single isomer, unassigned) [Example 82, 1-((*)-4-(((S)-5-(2-(2-aminopyridin-3-yl)-5-(1H-pyrazol-1-yl)-3H-imidazo[4,5-b]pyridin-3-yl)-2,3-dihydro-1H-inden-1-yl)amino)azepan-1-yl)prop-2-en-1-one]
10 | 5880 nM | 645 nM | 102 nM | 1600 nM |  | C=CC(=O)N1CCC(N[C@@H]2c3ccc(-n4c(-c5cccnc5N)nc5ccc(-n6cccn6)nc54)cc3CC2OC)CC1 (single isomer, unassigned) [Example 162, 1-(4-(((1R,2*)-5-(2-(2-aminopyridin-3-yl)-5-(1H-pyrazol-1-yl)-3H-imidazo[4,5-b]pyridin-3-yl)-2-methoxy-2,3-dihydro-1H-inden-1-yl)amino)piperidin-1-yl)prop-2-en-1-one]
11 | 180 nM | 48.7 nM | 21.5 nM |  | 87.7 nM | C=CC(=O)N1[C@H](C)CC(N[C@H]2CCc3cc(-n4c(-c5cccnc5N)nc5ccc(-n6cccn6)nc54)ccc32)C[C@@H]1C (single isomer, unassigned) [Example 88, 1-((2S,4*,6R)-4-(((R)-5-(2-(2-aminopyridin-3-yl)-5-(1H-pyrazol-1-yl)-3H-imidazo[4,5-b]pyridin-3-yl)-2,3-dihydro-1H-inden-1-yl)amino)-2,6-dimethylpiperidin-1-yl)prop-2-en-1-one]
12 | 781 nM | 213 nM | 31.1 nM |  | 478 nM | C=CC(=O)N1CCC(NC2c3ccc(-n4c(-c5cccnc5N)nc5ccc(-n6cccn6)nc54)cc3CC2O)CC1 (single isomer, unassigned) [Example 150, 1-(4-(((1*,2*)-5-(2-(2-aminopyridin-3-yl)-5-(1H-pyrazol-1-yl)-3H-imidazo[4,5-b]pyridin-3-yl)-2-hydroxy-2,3-dihydro-1H-inden-1-yl)amino)piperidin-1-yl)prop-2-en-1-one]
13 | 3590 nM | 582 nM | 85.6 nM | 595 nM |  | C=CC(=O)N1CCC(N[C@@H]2c3ccc(-n4c(-c5cccnc5N)nc5ccc(-n6cccn6)nc54)cc3CC2(F)F)CC1 [Example 119, 1-(4-{[(1R)-5-[2-(2-aminopyridin-3-yl)-5-(pyrazol-1-yl)imidazo[4,5-b]pyridin-3-yl]-2,2-difluoro-1,3-dihydroinden-1-yl]amino}piperidin-1-yl)prop-2-en-1-one]
14 | 50.1 nM | 14.8 nM | 4.51 nM |  | 53 nM | C=CC(=O)N1CCC(N[C@H]2CCc3cc(-n4c(-c5cccnc5N)nc5ccc(-n6cccn6)nc54)ccc32)C(F)C1 (single isomer, unassigned) [Example 105, 1-((3*,4*)-4-(((S)-5-(2-(2-aminopyridin-3-yl)-5-(1H-pyrazol-1-yl)-3H-imidazo[4,5-b]pyridin-3-yl)-2,3-dihydro-1H-inden-1-yl)amino)-3-fluoropiperidin-1-yl)prop-2-en-1-one]

Source: patent US12570655B2, “Cysteine covalent modifiers of AKT1 and uses thereof” (Terremoto Biosciences, Inc., priority 2023, dated 2026)
